According to patent publication US5464820A, “Specific inhibitors of tissue kallikrein” (priority 1993, dated 1995):
“And” between values parts separate entries of the source, which are not always exact repeats. Equal values may be shown once. Read-outs that look alike come from different tables or passages of the source. Non-standard residues stand in square brackets, D forms with d. Residues, ends and D or L forms follow the SMILES beside them. No end group written: not given here. Phe(4-NH2) = Nc1ccc(C[C@H](N)C(=O)O)cc1; d(aIle) = CC[C@H](C)[C@@H](N)C(=O)O; hArg = N=C(N)NCCCC[C@H](N)C(=O)O; dTle = CC(C)(C)[C@@H](N)C(=O)O; ChCar = not defined here; dAbu = CC[C@@H](N)C(=O)O; dia = not defined here

How the values were obtained:
[1] = target: porcine pancreatic kallikrein (PPK) (Sus scrofa, UniProt P00752); assay: Inhibition of porcine pancreatic kallikrein, cleavage of chromogenic substrate S-2266 (KI); type: biochemical
[2] = target: human plasma kallikrein (HPK) (Homo sapiens, UniProt P03952); assay: Inhibition of human plasma kallikrein (KI); type: biochemical; conditions: Table 6, HUK; read-out: KI HUK
Description: Assay methods were based on the cleavage of chromogenic substrate S-2266 (D-Val-Leu-Arg-pNA) (Kabi; Charlotte, N.C.) by porcine pancreatic kallikrein (Sigma Chemical Company; St. Louis, Mo.) to yield an increase in absorbance at 405 nm. By changing the substrate and enzyme, the general method has been extended to measure the inhibition of human tissue kallikrein (HTK or human urinary kallikrein HUK), human plasma kallikrein (HPK), plasmin, and urokinase (UK). In all assays, the robot dilutes the inhibitor into a series of wells and adds substrate and buffer. Chromogenic reactions are started by the addition of enzyme. Changes in the absorbance at 405 nm in an array of wells were recorded. All manipulations were performed by the instrument from reservoirs containing substrate, inhibitor, diluent (water), buffer, or enzyme.

[3] = Table 2, P3 substitutions, read-out: log KI (converted)

Sequence of porcine pancreatic kallikrein (PPK) (P00752 8-87 limits assumed): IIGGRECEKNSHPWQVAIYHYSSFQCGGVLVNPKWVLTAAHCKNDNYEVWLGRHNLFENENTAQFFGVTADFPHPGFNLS
Sequence of porcine pancreatic kallikrein (PPK) (P00752 95-246 limits assumed): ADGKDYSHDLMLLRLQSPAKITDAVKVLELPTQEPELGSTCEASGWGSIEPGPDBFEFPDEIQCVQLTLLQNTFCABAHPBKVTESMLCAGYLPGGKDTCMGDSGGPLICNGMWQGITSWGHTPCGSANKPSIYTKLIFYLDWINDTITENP
Sequence of human plasma kallikrein (HPK) (P03952 20-638): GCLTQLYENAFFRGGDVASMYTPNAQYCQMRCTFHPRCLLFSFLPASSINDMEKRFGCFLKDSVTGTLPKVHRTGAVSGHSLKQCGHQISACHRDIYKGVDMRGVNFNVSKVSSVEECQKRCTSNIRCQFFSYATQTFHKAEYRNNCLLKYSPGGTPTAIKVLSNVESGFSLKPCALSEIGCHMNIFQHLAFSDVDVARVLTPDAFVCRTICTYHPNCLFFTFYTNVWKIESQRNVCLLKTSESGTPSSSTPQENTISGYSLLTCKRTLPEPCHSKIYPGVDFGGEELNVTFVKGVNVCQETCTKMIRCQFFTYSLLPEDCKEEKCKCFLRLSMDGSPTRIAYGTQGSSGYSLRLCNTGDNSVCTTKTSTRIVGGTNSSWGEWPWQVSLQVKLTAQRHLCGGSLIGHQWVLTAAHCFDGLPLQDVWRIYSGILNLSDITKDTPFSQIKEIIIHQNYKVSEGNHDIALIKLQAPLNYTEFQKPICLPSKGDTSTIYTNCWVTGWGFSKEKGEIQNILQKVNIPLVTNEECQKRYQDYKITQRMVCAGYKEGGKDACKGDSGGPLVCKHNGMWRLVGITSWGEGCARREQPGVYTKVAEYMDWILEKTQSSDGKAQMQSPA

| Compound | Ki [1, 3] [µM] | Ki [2] [µM] | further results |
| --- | --- | --- | --- |
| Nc1ccc(C[C@@H](C=O)NC(=O)[C@H](Cc2ccccc2)NC(=O)[C@@H]2CCCN2C(=O)[C@@H](N)Cc2ccccc2)cc1 [KITSD-1, Phe-Pro-Phe-Phe(4NH2)-aldehyde] (H-FPF[Phe(4-NH2)]-aldehyde) | – | – | Ki ([1]; Table 7, read-out: K1 PPK): 27 µM |
| CC[C@@H](C)[C@@H](N)C(=O)N[C@@H](Cc1ccccc1)C(=O)N[C@@H](CCCNC(=N)N)C(=O)N[C@@H](CO)C(=O)N[C@H](C(=O)N[C@@H](CCC(N)=O)C(N)=O)C(C)C [KKI-85, [D-Ile]-Phe-Arg-Ser-Val-Gln] (H-[dI]FRSVQ-NH2) | – | – | Ki ([1]; text b291, β-PPK, read-out: KI): 34 µM |
| CC[C@H](C)[C@H](NC(=O)[C@H](CCCNC(=N)N)NC(=O)[C@H](C)NC(=O)[C@H](CCCCN)NC(=O)[C@H](CS)NC(=O)[C@@H]1CCCN1)C(N)=O [Pro-Cys-Lys-Ala-Arg-Ile] (H-PCKARI-NH2) | – | 0.18 | Ki ([1]; Table 6, read-out: KI PPK): 0.003 µM |
| CC(C)[C@H](N)C(=O)N[C@@H](Cc1ccccc1)C(=O)N[C@@H](CCCNC(=N)N)C(=O)N[C@@H](CC(N)=O)C(=O)N[C@@H](CCCNC(=N)N)C(=O)N[C@@H](CCC(N)=O)C(N)=O [Val-Phe-Arg-Asn-Arg-Gln] (H-VFRNRQ-NH2) | – | 532 | – |
| CC(C)[C@H](N)C(=O)N[C@@H](Cc1ccccc1)C(=O)N[C@@H](CCCNC(=N)N)C(=O)N[C@@H](CC(N)=O)C(=O)N[C@@H](CC(N)=O)C(=O)N[C@@H](CCCNC(=N)N)C(N)=O [Val-Phe-Arg-Asn-Asn-Arg] (H-VFRNNR-NH2) | – | 124 | – |
| CC(C)[C@H](N)C(=O)N[C@@H](Cc1ccccc1)C(=O)N[C@@H](CCCNC(=N)N)C(=O)N[C@@H](CC(N)=O)C(=O)N[C@@H](CO)C(=O)N[C@@H](CCCNC(=N)N)C(N)=O [Val-Phe-Arg-Asn-Ser-Arg] (H-VFRNSR-NH2) | – | 194 | – |
| CC(C)[C@H](N)C(=O)N[C@@H](Cc1ccccc1)C(=O)N[C@@H](CCCNC(=N)N)C(=O)N[C@@H](CC(N)=O)C(=O)N[C@H](CCCNC(=N)N)C(=O)N[C@@H](CCC(N)=O)C(N)=O [Val-Phe-Arg-Asn-dArg-Gln] (H-VFRN[dR]Q-NH2) | – | 1570 | – |
| CC(C)[C@H](N)C(=O)N[C@@H](Cc1ccccc1)C(=O)N[C@@H](CCCCNC(=N)N)C(=O)N[C@@H](CC(N)=O)C(=O)N[C@@H](CCCCNC(=N)N)C(=O)N[C@@H](CCC(N)=O)C(N)=O [Val-Phe-hArg-Asn-hArg-Gln] (H-VF[hArg]N[hArg]Q-NH2) | – | 298 | Ki ([1]; Table 6, read-out: KI PPK): 2.9 µM and 10 µM |
| ChCar-Phe-Arg-dia-Val-Gln (ChCar-FR[dia]VQ; reading uncertain; also: printed as ChCar-Phe-Arg-dia-Val-Gln) | – | 985 | Ki ([1]; Table 6, read-out: KI PPK): 114 µM |

The next lines start with results.

| Ki [1, 3] [µM] | Ki [2] [µM] | Compound | further results |
| --- | --- | --- | --- |
| 79.4 | – | CC(C)[C@H](NC(=O)[C@H](CO)NC(=O)[C@H](CCCNC(=N)N)NC(=O)[C@H](Cc1ccccc1)NC(=O)CN)C(=O)N[C@@H](CCC(N)=O)C(N)=O [KKI-80, Gly-Phe-Arg-Ser-Val-Gln] (H-GFRSVQ-NH2) | – |
| 50.1 | – | CC(C)[C@H](NC(=O)[C@H](CO)NC(=O)[C@H](CCCNC(=N)N)NC(=O)[C@H](Cc1ccccc1)NC(=O)[C@@H](C)N)C(=O)N[C@@H](CCC(N)=O)C(N)=O [KKI-81, [D-Ala]-Phe-Arg-Ser-Val-Gln] (H-[dA]FRSVQ-NH2) | – |
| 43.7 | – | CC[C@@H](N)C(=O)N[C@@H](Cc1ccccc1)C(=O)N[C@@H](CCCNC(=N)N)C(=O)N[C@@H](CO)C(=O)N[C@H](C(=O)N[C@@H](CCC(N)=O)C(N)=O)C(C)C [KKI-82, [D-Aab]-Phe-Arg-Ser-Val-Gln] (H-[dAbu]FRSVQ-NH2) | – |
| 100 | – | CC(C)[C@H](NC(=O)[C@H](CO)NC(=O)[C@H](CCCNC(=N)N)NC(=O)[C@H](Cc1ccccc1)NC(=O)[C@H](N)C(C)C)C(=O)N[C@@H](CCC(N)=O)C(N)=O [KKI-83, [D-Val]-Phe-Arg-Ser-Val-Gln] (H-[dV]FRSVQ-NH2) | – |
| 75.9 | – | CC(C)[C@H](NC(=O)[C@H](CO)NC(=O)[C@H](CCCNC(=N)N)NC(=O)[C@H](Cc1ccccc1)NC(=O)[C@H](N)C(C)(C)C)C(=O)N[C@@H](CCC(N)=O)C(N)=O [KKI-84, [D-t-BuGly]-Phe-Arg-Ser-Val-Gln] (H-[dTle]FRSVQ-NH2) | – |
| 57.5 | – | CC[C@H](C)[C@@H](N)C(=O)N[C@@H](Cc1ccccc1)C(=O)N[C@@H](CCCNC(=N)N)C(=O)N[C@@H](CO)C(=O)N[C@H](C(=O)N[C@@H](CCC(N)=O)C(N)=O)C(C)C [KKI-105] (H-[d(aIle)]FRSVQ-NH2) | – |
